Results published in patent publication US20250388582A1, “NOVEL BICYCLIC HETEROARYL COMPOUND AND USE THEREOF” (ILDONG PHARMACEUTICAL CO., LTD., priority 2022, published 2025).

Columns and labels:
human GST-PIKFYVE = biological target: T1, human GST-PIKFYVE (Homo sapiens, UniProt Q9Y2I7); experiment: ADP-Glo kinase assay, enzyme inhibition activity against human PIKFYVE (Carna biosciences); type: biochemical; settings: inhibitory activity at final compound concentration 10 nM; 1 hour at room temperature
T1 construct: GST; purchased Carna biosciences 11-118
Protocol: The enzyme inhibition activity values for the compounds according to Examples against human PIKFYVE were calculated using the ADP-Glo™ kinase assay service of Carna biosciences, Inc. The enzyme activity evaluation method provided by Carna biosciences Inc., is shown below.
Enzyme inhibition activity was evaluated by reacting the compounds according to Examples with human GST-PIKFYVE (11-118, Carna biosciences), which was purified using glutathione Sepharose chromatography. The reaction buffer used was composed of 50 mmol/L MOPS, 1 mmol/L DTT, and pH 7.2, and all reactions of the test distilled water were performed in the buffer.
Compounds were prepared as solutions in 100% DMSO as 100× stocks and adjusted to have a final sample concentration of 10 nM.
The substrate-enzyme reaction for PIKFYVE was performed by mixing 5 μL human GST-PIKFYVE, 5 μL compounds according to Examples, 5 μL enzyme substrate, and 5 μL purified ATP and reacting for 1 hour at room temperature. After the substrate-enzyme reaction, 20 μL ADP-Glo™ Reagent was added and reacted at room temperature for 40 minutes, then 40 μL Kinase Detection Reagent was added and reacted at room temperature for 40 minutes.
After completion of the reaction, the degree of enzyme activity inhibition was measured by luminescence. The fluorescence of the enzyme activity in the solvent control group […] was set to 100%, and the fluorescence of the enzyme activity in the solvent control group without compound treatment was set to 0%. The inhibitory activity of each compound according to Examples was calculated based on these values.

PIKFYVE = biological target: T2, PIKFYVE (Homo sapiens, UniProt Q9Y2I7); experiment: NanoBRET TE Intracellular Kinase Assay, interaction of PIKFYVE and compounds in HEK293 cells; type: cell-based; settings: IC50 class from BRET; HEK293 cells expressing PIKFYVE-NanoLuc; 2 hours incubation
T2 construct: host or cells: HEK293 (ATCC, CRL-1573)
Protocol: To predict the efficacy of the compounds according to Example on PIKFYVE in humans, the interaction between PIKFYVE and the compounds was tested using the HEK293 cell line derived from human embryonic kidney (ATCC, CRL-1573) via NanoBRETT TE Intracellular Kinase Assay Service of Carna biosciences Inc., (Japan). The evaluation method provided by Carna biosciences Inc., was shown below and the NanoBRET™ TE Intracellular Kinase Assay, K-8 Kit (Promega, CS1810C88) was used.
The HEK-293 cells cultured in Opti-MEM™ I Reduced Serum Medium (Thermo Fisher, 11058-021) were transfected with Transfection Carrier DNA (Promega, E4881), PIKFYVE-NanoLuc Fusion Vector (Promega, CS1810C225), and FuGENE HD Transfection Reagent (Promega, E2311) to produce cells expressing genes combining PIKFYVE and NanoLuc, followed by culturing 100 μl (2×10^5 cells/ml) each in 96-well plates (Corning, 3917).
10× compounds according to Examples or Comparative Examples prepared by concentration in 1× NanoBRET™ tracer reagent and DMSO were reacted in 96-well plates and incubated for 2 hours in a 37° C., 5% CO2 incubator.
After the reaction was completed, 3× Complete NanoBRET™ Nano-Glo Substrate solution was added to each well, and the reaction was allowed to run for 2-3 minutes at room temperature before BRET was measured using a GloMax Discover Multimode Microplate Reader (Promega).

T1 sequence (Q9Y2I7 whole entry): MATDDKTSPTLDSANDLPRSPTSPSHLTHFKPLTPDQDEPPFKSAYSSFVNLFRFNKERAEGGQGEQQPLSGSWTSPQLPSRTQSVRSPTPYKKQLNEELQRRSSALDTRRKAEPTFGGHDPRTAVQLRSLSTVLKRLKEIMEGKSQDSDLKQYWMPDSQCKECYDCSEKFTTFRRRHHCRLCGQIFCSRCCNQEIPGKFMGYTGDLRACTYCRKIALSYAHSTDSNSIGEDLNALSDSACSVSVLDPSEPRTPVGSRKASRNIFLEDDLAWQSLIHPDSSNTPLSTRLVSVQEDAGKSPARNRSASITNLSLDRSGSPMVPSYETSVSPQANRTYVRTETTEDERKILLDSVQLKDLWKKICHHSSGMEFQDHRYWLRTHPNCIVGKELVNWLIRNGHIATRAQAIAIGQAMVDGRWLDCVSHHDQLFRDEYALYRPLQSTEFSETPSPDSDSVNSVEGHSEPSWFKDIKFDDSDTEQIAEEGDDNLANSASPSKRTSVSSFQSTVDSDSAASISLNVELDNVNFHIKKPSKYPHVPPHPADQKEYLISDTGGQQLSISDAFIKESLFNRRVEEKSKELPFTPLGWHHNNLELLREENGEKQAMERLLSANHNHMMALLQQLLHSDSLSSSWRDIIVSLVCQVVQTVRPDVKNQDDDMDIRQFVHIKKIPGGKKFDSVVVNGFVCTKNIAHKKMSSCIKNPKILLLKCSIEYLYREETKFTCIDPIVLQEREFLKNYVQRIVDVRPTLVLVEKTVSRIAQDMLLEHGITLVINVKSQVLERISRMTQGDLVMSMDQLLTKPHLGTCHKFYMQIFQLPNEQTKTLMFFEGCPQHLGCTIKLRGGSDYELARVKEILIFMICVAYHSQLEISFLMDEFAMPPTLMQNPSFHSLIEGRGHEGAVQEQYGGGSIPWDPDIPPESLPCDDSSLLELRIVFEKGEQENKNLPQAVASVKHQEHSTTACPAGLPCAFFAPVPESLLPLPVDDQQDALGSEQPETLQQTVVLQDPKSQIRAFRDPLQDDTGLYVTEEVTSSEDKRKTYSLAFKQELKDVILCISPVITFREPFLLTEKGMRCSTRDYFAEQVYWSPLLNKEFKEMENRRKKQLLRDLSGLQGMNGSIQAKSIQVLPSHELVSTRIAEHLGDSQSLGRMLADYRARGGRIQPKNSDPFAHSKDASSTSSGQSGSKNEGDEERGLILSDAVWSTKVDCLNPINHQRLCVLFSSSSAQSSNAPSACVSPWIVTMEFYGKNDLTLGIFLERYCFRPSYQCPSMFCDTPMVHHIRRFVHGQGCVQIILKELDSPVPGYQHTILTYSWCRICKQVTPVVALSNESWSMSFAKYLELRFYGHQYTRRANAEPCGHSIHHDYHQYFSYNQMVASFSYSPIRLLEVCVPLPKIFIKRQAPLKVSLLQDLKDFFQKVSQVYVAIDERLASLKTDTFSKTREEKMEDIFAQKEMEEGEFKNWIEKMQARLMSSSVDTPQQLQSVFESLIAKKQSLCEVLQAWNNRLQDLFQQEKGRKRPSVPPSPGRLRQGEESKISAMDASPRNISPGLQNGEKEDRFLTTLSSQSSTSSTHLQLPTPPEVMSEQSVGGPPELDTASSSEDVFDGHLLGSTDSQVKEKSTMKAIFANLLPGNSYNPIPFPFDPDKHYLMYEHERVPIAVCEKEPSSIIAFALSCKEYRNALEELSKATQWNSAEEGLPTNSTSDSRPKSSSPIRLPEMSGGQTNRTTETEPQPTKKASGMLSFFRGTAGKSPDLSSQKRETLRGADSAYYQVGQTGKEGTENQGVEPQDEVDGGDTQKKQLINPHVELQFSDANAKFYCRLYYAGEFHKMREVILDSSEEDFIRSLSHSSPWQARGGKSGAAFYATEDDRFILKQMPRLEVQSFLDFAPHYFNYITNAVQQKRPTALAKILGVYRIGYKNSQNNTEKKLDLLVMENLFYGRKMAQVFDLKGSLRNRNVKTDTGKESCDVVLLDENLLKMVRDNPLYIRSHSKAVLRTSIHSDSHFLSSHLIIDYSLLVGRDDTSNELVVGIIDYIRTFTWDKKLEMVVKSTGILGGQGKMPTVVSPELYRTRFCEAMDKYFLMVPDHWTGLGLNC
T2 sequence (Q9Y2I7 whole entry): as above

Row | SMILES | ADP-Glo kinase assay (%, 10 nM) (human GST-PIKFYVE) [%] | IC50 (PIKFYVE) [nM]
1 | Cc1cccc(/C=N/Nc2nc(N3CCOCC3)nc3c2ncn3Cc2ccccn2)c1 [Example 20, (E)-4-(6-(2-(3-methylbenzylidene)hydrazinyl)-9-(pyridin-2-ylmethyl)-9H-purin-2-yl)morpholine] | 78.53 | 10 to 20
2 | Cc1cccc(/C=N/Nc2nc(N3CCOCC3)nc3c2ncn3CC2CC2)c1 [Example 21, (E)-4-(9-(cyclopropylmethyl)-6-(2-(3-methylbenzylidene)hydrazinyl)-9H-purin-2-yl)morpholine] | 60.95 | 20 to 30
3 | Cc1cccc(/C=N/Nc2nc(N3CCOCC3)nc3c2ncn3CC(=O)c2ccccc2)c1 [Example 22, (E)-2-(6-(2-(3-methylbenzylidene)hydrazinyl)-2-morpholino-9H-purin-9-yl)-1-phenylethan-1-one] | 66.19 | 10 to 20
4 | Cc1cccc(/C=N/Nc2nc(N3CCOCC3)nc3c2ncn3CC(=O)c2ccc(Cl)cc2)c1 [Example 25, (E)-1-(4-chlorophenyl)-2-(6-(2-(3-methylbenzylidene)hydrazinyl)-2-morpholino-9H-purin-9-yl)ethan-1-one] | 72.46 | 10 to 20
5 | Cc1cccc(/C=N/Nc2nc(N3CCOCC3)nc3c2ncn3CC(F)(F)c2ccccn2)c1 [Example 26, (E)-4-(9-(2,2-difluoro-2-(pyridin-2-yl)ethyl)-6-(2-(3-methylbenzylidene)hydrazinyl)-9H-purin-2-yl)morpholine] | 80.87 | 10 to 20
6 | Cc1cccc(/C=N/Nc2nc(N3CCOCC3)nc3c2ncn3CC(=O)c2cccnc2)c1 [Example 28, (E)-2-(6-(2-(3-methylbenzylidene)hydrazinyl)-2-morpholino-9H-purin-9-yl)-1-(pyridin-3-yl)ethan-1-one] | 65.48 | 20 to 30
7 | Cc1cccc(/C=N/Nc2nc(N3CCOCC3)nc3c2ncn3CC(=O)c2cccn2C)c1 [Example 30, (E)-1-(1-methyl-1H-pyrrol-2-yl)-2-(6-(2-(3-methylbenzylidene)hydrazinyl)-2-morpholino-9H-purin-9-yl)ethan-1-one] | 76.90 | 10 to 20
8 | Cc1cccc(/C=N/Nc2nc(N3CCOCC3)nc3c2ncn3CC(=O)c2ccncc2)c1 [Example 32, (E)-2-(6-(2-(3-methylbenzylidene)hydrazinyl)-2-morpholino-9H-purin-9-yl)-1-(pyridin-4-yl)ethan-1-one] | 59.60 | 20 to 30
9 | Cc1cccc(/C=N/Nc2nc(N3CCOCC3)nc3c2ncn3CC(=O)c2ccc(C#N)cc2)c1 [Example 35, (E)-4-(2-(6-(2-(3-methylbenzylidene)hydrazinyl)-2-morpholino-9H-purin-9-yl)acetyl)benzonitrile] | 70.11 | 10 to 20
10 | Cc1cccc(/C=N/Nc2nc(N3CCOCC3)nc3c2ncn3CC(=O)c2cccc(C#N)c2)c1 [Example 36, (E)-3-(2-(6-(2-(3-methylbenzylidene)hydrazinyl)-2-morpholino-9H-purin-9-yl)acetyl)benzonitrile] | 76.04 | 10 to 20
11 | COc1ccccc1C(=O)Cn1cnc2c(N/N=C/c3cccc(C)c3)nc(N3CCOCC3)nc21 [Example 37, (E)-1-(2-methoxyphenyl)-2-(6-(2-(3-methylbenzylidene)hydrazinyl)-2-morpholino-9H-purin-9-yl)ethan-1-one] | 89.07 | ≤ 10
12 | Cc1cccc(/C=N/Nc2nc(N3CCOCC3)nc3c2ncn3CC(=O)c2ccccc2C)c1 [Example 40, (E)-2-(6-(2-(3-methylbenzylidene)hydrazinyl)-2-morpholino-9H-purin-9-yl)-1-(o-tolyl)ethan-1-one] | 86.29 | ≤ 10
13 | Cc1cccc(/C=N/Nc2nc(N3CCOCC3)nc3c2ncn3CC(=O)c2cccc(C)c2)c1 [Example 41, (E)-2-(6-(2-(3-methylbenzylidene)hydrazinyl)-2-morpholino-9H-purin-9-yl)-1-(m-tolyl)ethan-1-one] | 76.69 | ≤ 10
14 | Cc1cccc(/C=N/Nc2nc(N3CCOCC3)nc3c2ncn3CC(=O)c2cccc(C(F)(F)F)c2)c1 [Example 44, (E)-2-(6-(2-(3-methylbenzylidene)hydrazinyl)-2-morpholino-9H-purin-9-yl)-1-(3-(trifluoromethyl)phenyl)ethan-1-one] | 62.80 | 20 to 30
15 | Cc1cccc(/C=N/Nc2nc(N3CCOCC3)nc3c2ncn3CC(=O)c2ccc(C(F)(F)F)cc2)c1 [Example 45, (E)-2-(6-(2-(3-methylbenzylidene)hydrazinyl)-2-morpholino-9H-purin-9-yl)-1-(4-(trifluoromethyl)phenyl)ethan-1-one] | 67.70 | 20 to 30
16 | Cc1cccc(/C=N/Nc2nc(N3CCOCC3)nc3c2ncn3CC(=O)c2cccc(F)c2)c1 [Example 46, (E)-1-(3-fluorophenyl)-2-(6-(2-(3-methylbenzylidene)hydrazinyl)-2-morpholino-9H-purin-9-yl)ethan-1-one] | 73.96 | 10 to 20
17 | Cc1cccc(/C=N/Nc2nc(N3CCOCC3)nc3c2ncn3CC(=O)c2cccc(Cl)c2)c1 [Example 49, (E)-1-(3-chlorophenyl)-2-(6-(2-(3-methylbenzylidene)hydrazinyl)-2-morpholino-9H-purin-9-yl)ethan-1-one] | 78.87 | ≤ 10
18 | Cc1cccc(/C=N/Nc2nc(N3CCOCC3)nc3c2ncn3CC(=O)c2cc(C(F)(F)F)ccn2)c1 [Example 52, (E)-2-(6-(2-(3-methylbenzylidene)hydrazinyl)-2-morpholino-9H-purin-9-yl)-1-(4-(trifluoromethyl)pyridin-2-yl)ethan-1-one] | 67.10 | 20 to 30
19 | Cc1cccc(/C=N/Nc2nc(N3CCOCC3)nc3c2ncn3CC(=O)c2ccc(F)cn2)c1 [Example 53, (E)-1-(5-fluoropyridin-2-yl)-2-(6-(2-(3-methylbenzylidene)hydrazinyl)-2-morpholino-9H-purin-9-yl)ethan-1-one] | 70.90 | 20 to 30
20 | Cc1cccc(/C=N/Nc2nc(N3CCOCC3)nc3c2ncn3CCc2ccccn2)c1 [Example 73, (E)-4-(6-(2-(3-methylbenzylidene)hydrazinyl)-9-(2-(pyridin-2-yl)ethyl)-9H-purin-2-yl)morpholine] | 80.98 | 10 to 20
21 | Cc1cccc(/C=N/Nc2nc(N3CCOCC3)nc3c2ncn3CC2(C)COC2)c1 [Example 74, (E)-4-(6-(2-(3-methylbenzylidene)hydrazinyl)-9-((3-methyloxetan-3-yl)methyl)-9H-purin-2-yl)morpholine] | 69.71 | 20 to 30
22 | Cc1cccc(/C=N/Nc2nc(N3CCOCC3)nc3c2ncn3CCc2cccnc2)c1 [Example 80, (E)-4-(6-(2-(3-methylbenzylidene)hydrazinyl)-9-(2-(pyridin-3-yl)ethyl)-9H-purin-2-yl)morpholine] | 83.61 | ≤ 10
